# In patent US20210378985A1, “METHOD AND COMPOUND FOR THE TREATMENT OF HEPATITIS C” (priority 2020, published 2021):
# Columns and labels:
# HIV-1 [1] = experiment: Co-cultivation of HIV-1 infected cells with uninfected target cells; type: cell-based
# Text: Viral pathogenesis in co-cultivation of infected cells with uninfected target cells presents a complex system with several target sites (attachment, fusion, transcription, processing, packaging and budding).
# In many documented antiretroviral studies, the co-culture system is conventionally used to isolate the virus as well as to study cell-to-cell transmission or to determine if a given compound blocks cell fusion.
# gamma interferon = experiment: Gamma interferon production stimulated by 90I; type: cell-based; details: versus positive control PMA-Ionomycin combination
# HIV-1 [2] = experiment: Cell-based time course study (mode of action); details: drug addition at various time points
# Text: The time course study may be an important tool for the determination of viral kinetics and drug mode of action. The dynamics of drug-virus interaction, competitive or non-competitive, kinetics provides a dose response curve from which a broad lead mechanism of action can be drawn. The dynamics of the interactions relate to the viral kinetic of infection and drug addition at various time points.
# HCV subgenomic replicon = details: at both mRNA and protein level; cited from earlier work
# [3] = tested on: core protein in Huh 7 cells; details: cited from earlier work
smiles,measurement,setting,value
"O=C(OCCOCCOC(=O)c1ccccc1)c1ccccc1 [Compound 90I, diethylene glycol dibenzoate]",syncytium formation,HIV-1 [1],drastic drop of syncytium formation
same,cell viability,HIV-1 [1]; exponential cell growth dynamics,greater than ninety percent
same,amount of gamma interferon produced,gamma interferon,equivalent to that of the positive control
same,mode of action (early/late),HIV-1 [2],works both early and late
C[C@@H]1CC[C@@]2(OC1)O[C@H]1C[C@H]3[C@@H]4CC=C5C[C@@H](O)CC[C@]5(C)[C@H]4CC[C@]3(C)[C@H]1[C@@H]2C [Diosgenin],replication of HCV subgenomic replicon,HCV subgenomic replicon,effectively blocked the replication of the HCV subgenomic replicon
O=C1C[C@@H](c2ccc(O)cc2)Oc2cc(O)cc(O)c21 [Naringenin],activity of core protein,[3]; Huh 7 cells,suppressed the activity of core protein
same,assembly of HCV particles,[3],effectively blocked the assembly of HCV particles
